# Read-outs that look alike come from different tables or passages of the source.
# Key:
# [1] = Acute oral toxicity (LD50) in rat; settings: in vivo, administered orally
# Description: With reference to the method of administration, they are normally usable orally for example in the form of tablets, capsules, powders, granules, etc., but can also be administered parenterally in the form of injectable solutions, suppositories, pellets, etc., as the case may be. In the case of their being employed as a therapeutic agent for diabetes, they can be normally administered orally in daily doses of 0.05 mg to 10 mg/kg or parenterally in daily doses of 0.01 mg to 10 mg/kg, per adult human, and in the case of their being utilized as a therapeutic agent for hyperlipemia, they can be normally given orally in daily doses of 0.05 mg to 10 mg/kg or parenterally in daily doses of 0.01 mg to 10 mg/kg, per adult human, whereby it is desirable to administer such quantities once daily or intermittently twice to four times weekly.
# KKAy mice = assay: Blood sugar- and lipid-lowering activity in mice (test compound 0.005% in diet, 4 days); assay type: in vivo; settings: Mus musculus, feed or water, 96 h, 0.005% in powder diet, male KKAy mice
# Description: Blood sugar- and lipid-lowering activity in mice.
# 0.005% of a test compound was mixed with a powder diet (CE-2, produced by CLEA JAPAN), and KKAy mice (male, 8 to 10 weeks of age, 5 mice/group) were placed on the diet for 4 days, and allowed free access to water throughout the experiment. Blood samples were taken from the orbital veins and assayed for blood sugar by the glucose oxidase method and for plasma triglyceride by the enzyme method in which the produced glycerol was determined by means of Cleantech TG-S Kit (Yatron), respectively. The respective values are expressed in terms of rate of lowering (%) from the values of control group not receiving the test compound.
# [2] = enzyme method (Cleantech TG-S Kit), read-out: Hypolipemic activity (rate of lowering of plasma triglyceride from control group)
# [3] = glucose oxidase method, read-out: Hypoglycemic activity (rate of lowering of blood sugar from control group)
Structure (SMILES),LD50 [1],"inhibition in vivo at 0.005 %, 0.005 % in diet (KKAy mice; [2])","inhibition in vivo at 0.005 %, 0.005 % in diet (KKAy mice; [3])"
"CCc1ccc(C(COC(C)=O)COc2ccc(CC3SC(=O)NC3=O)cc2)nc1 (stereo not shown) [Example 6, 5-{4-[3-acetoxy-2-(5-ethyl-2-pyridyl)propoxy]benzyl}-2,4-thiazolidinedione]",≥ 5000 mg/kg,–,–
"CCc1ccc(C(CO)COc2ccc(CC3SC(=O)NC3=O)cc2)nc1 (stereo not shown) [5-{4-[2-(5-ethyl-2-pyridyl)-3-hydroxypropoxy]benzyl}-2,4-thiazolidinedione]",≥ 5000 mg/kg,–,–
"O=C1NC(=O)C(Cc2ccc(OCC(O)c3ccccn3)cc2)S1 (stereo not shown) [Example 8, 5-{4-[2-Hydroxy-2-(2-pyridyl)ethoxy]benzyl}-2,4-thiazolidinedione]",–,53%,47%
"Cc1cc(C)nc(C(O)COc2ccc(CC3SC(=O)NC3=O)cc2)c1 (stereo not shown) [Example 10, 5-{4-[2-(4,6-dimethyl-2-pyridyl)-2-hydroxyethoxy]benzyl}-2,4-thiazolidinedione]",–,47%,40%
"CCc1ccc(C(CO)COc2ccc(CC3SC(=O)NC3=O)cc2)nc1 (stereo not shown) [Example 4, 5-{4-[2-(5-ethyl-2-pyridyl)-3-hydroxypropoxy]benzyl}-2,4-thiazolidinedione]",–,38%,45%
"Cc1cccc(C(O)COc2ccc(CC3SC(=O)NC3=O)cc2)n1 (stereo not shown) [Example 1, 5-{4-[2-hydroxy-2-(6-methyl-2-pyridyl)ethoxy]benzyl}-2,4-thiazolidinedione]",≥ 5000 mg/kg,47%,45%
"Cc1cccnc1C(O)COc1ccc(CC2SC(=O)NC2=O)cc1 (stereo not shown) [Example 7, 5-{4-[2-Hydroxy-2-(3-methyl-2-pyridyl)ethoxy]benzyl}-2,4-thiazolidinedione]",–,58%,53%
"Cc1cccnc1C(CO)COc1ccc(CC2SC(=O)NC2=O)cc1 (stereo not shown) [Example 2, 5-{4-[3-hydroxy-2-(3-methyl-2-pyridyl)propoxy]-benzyl}-2,4-thiazolidinedione]",≥ 5000 mg/kg,11%,22%
"CCc1ccc(C(O)COc2ccc(CC3SC(=O)NC3=O)cc2)nc1 (stereo not shown) [Example 3, 5-{4-[2-(5-ethyl-2-pyridyl)-2-hydroxyethoxy]benzyl}-2,4-thiazolidinedione]",≥ 5000 mg/kg,35%,32%
"Cc1ccc(C(O)COc2ccc(CC3SC(=O)NC3=O)cc2)nc1 (stereo not shown) [Example 9, 5-{4-[2-Hydroxy-2-(5-methyl-2-pyridyl)ethoxy]benzyl}-2,4-thiazolidinedione]",–,19%,35%
"CC(=O)OC(COc1ccc(CC2SC(=O)NC2=O)cc1)c1cccc(C)n1 (stereo not shown) [Example 5, 5-{4-[2-acetoxy-2-(6-methyl-2-pyridyl)ethoxy]benzyl}-2,4-thiazolidinedione]",≥ 5000 mg/kg,–,–

# Source: patent US4582839A, “2,4-thiazolidinediones” (Takeda Chemical Industries, Ltd., priority 1985, dated 1986)
